How the values were obtained:
[1] = test system: endothelial nitric oxide synthase (eNOS); test: Phosphorylation of eNOS in HUVEC; format: cell-based, Human; conditions: 10 μM
Method: It is well-known that activation of AMPK activates NRF-1 and facilitates mitochondrial biogenesis. In addition, NO/cGMP activates PGC-1a and NRF-1 to facilitate mitochondrial biogenesis. In order to ascertain whether β-lapachone, which activates AMPK, is involved in production of nitric oxide (NO), a degree of phosphorylation, increasing the activity of endothelial nitric oxide synthase (eNOS), was determined. In order to examine phosphorylation of eNOS by the action of β-lapachone, Human Umbilical Vein Endothelial Cells (HUVEC) were seeded onto a 60-mm plate at a density of 1×10^5 cells, and cultured in EBM2+5% FBS medium for 24 hours. The culture medium was replaced with a serum-free EBM2 medium, and cells were treated with β-lapachone (10 μM) for a predetermined period of time. Phosphorylated eNOS was observed using Anti-pS1177 eNOS.

[2] = test system: AMP kinase; test: Phosphorylation of AMPK by β-lapachone in HepG2 cells; format: cell-based, Human; conditions: 10 μM, 30 min to 6 hr
Method: This example was carried out to confirm whether β-lapachone (Compound 1) has effects on phosphorylation of AMPK and ACC, which are intracellular energy-regulating proteins. In order to examine phosphorylation of AMP kinase and ACC (acetyl-CoA carboxylase) by β-lapachone, HepG2 cells (Human hepatocellular liver carcinoma cell line) were seeded onto a 6-well plate at a density of 1×10^5 cells per well, and cultured in a RPMI+10% FBS medium. After growing the cells for 24 hours, the culture medium was replaced with a serum-free RPMI medium, and cells were treated with β-lapachone (10 μM) for 30 min, 1 hr, 2 hr, 4 hr and 6 hr, respectively, in combination with a control (DMSO). Anti-ACC and Anti-pS79-ACC were used in order to observe phosphorylated ACC, whereas Anti-AMPK and Anti-pT172-AMPK were used in order to observe phosphorylated AMP kinase, respectively.

[3] = test system: C57BL/6JL Lep ob/Lep ob mice; test: Blood lipid, glucose and enzyme levels in obese mice (ob/ob); format: in vivo; design: unit not given here; conditions: 100 mg/kg for 26 days
Text: (§1) 10-week-old C57BL/6JL Lep ob/Lep ob male mice having obesity characteristics and predisposition were purchased from Daehan Biolink Co., Ltd. (Chungchongbuk-do, Korea). Animals were raised in a breeding room maintained at a temperature of 23 C, 55% humidity, illumination of 300 to 500 lux, a 12-h light/dark (L/D) cycle, and ventilation of 10 to 18 times/hr. Animals were fed ad libitum pellets of Purina Rodent Laboratory Chow 5001 (purchased from Purina Mills Inc., St. Louis, Mo., USA) as a solid feed for experimental animals and tap water as drinking water. Mice were allowed to acclimate to new environment of the breeding room for two weeks and were then administered some pyrano-o-naphthoquinone and furano-o-naphthoquinone derivatives synthesized according to the present invention at doses of 100 mg/kg for 26 days. Observation was made on changes in body weight, blood glucose and dietary intake, with respect to a time course of administration. After administration was complete, Computed Tomography (CT) was performed to confirm changes in adipose tissue distribution of animals, changes in fat distribution of tissues in various organs, changes in sizes of adipocytes, and changes in glucose, lipid and enzyme levels in blood and liver.

[4] = test system: C57BL/6JL Lep ob/Lep ob mice; test: Weight loss effects in obese mice (ob/ob): body weight; format: in vivo; conditions: 100 mg/kg for 26 days
Text: as §1

[5] = test system: mRNAs of PPAR alpha, PPAR gamma, AOX, AMPK alpha 1 and 2, CPT1; test: Expression of genes involved in energy metabolism in DIO mice; format: in vivo, C57BL/6 mice; conditions: 50 mg/kg daily oral
Method: β-lapachone was administered daily to diet-induced obesity (DIO) mice at a dose of 50 mg/kg via an oral route, and levels of transcripts of genes involved in energy metabolism in the liver and gonadal adipose tissues were measured using real-time quantitative PCR. Referring to enzymes shown in FIG. 11, PPAR alpha and gamma are enzymes responsible for transcriptional regulation of enzymes involved in energy expenditure (30,31), AMPK plays a central role in the maintenance of cell energy homeostasis by sensing the intracellular AMP/ATP ratio, and AOX catalyzes to activate oxidative phosphorylation via oxidation of acyl CoA which resides in a certain step of a lipid metabolism process (32,33). In addition, CPT1 is also an enzyme involved in energy metabolism, and is well-known as an enzyme that enables the passage of long chain acyl CoA into mitochondria, not taking a route toward synthesis of triacylglycerol (34,35). […] Increased expression levels of such genes show the possibility that β-lapachone can be as therapeutic for the treatment of energy metabolism-related diseases.

[6] = test system: AMPK and ACC; test: Phosphorylation of AMPK & ACC in DIO C57BL/6 mice (Western blot); format: in vivo; conditions: 50 mg/kg daily oral
Method: In order to investigate anti-obesity effects of β-lapachone, β-lapachone was administered daily to diet-induced obesity (DIO) mice at a dose of 50 mg/kg via an oral route, and effects of β-lapachone on phosphorylation of AMPK and ACC, which play an important role in energy metabolism and lipogenesis in the liver and gonadal adipose tissues, were examined. […] Phosphorylated AMPK is believed to activate metabolism associated with energy. Whereas, it is believed that ACC, which is affected by activation of AMPK, is phosphorylated and lipogenic activity thereof is then inhibited, which will then exert some effects on lipid metabolism including inhibition of obesity.

[7] = test system: AMPK; test: Activation of AMPK in liver and gonadal adipose tissues of C57BL/6 mice; format: in vivo; conditions: 5 mg/kg via tail veins, 2 hours and 4 hours
Method: A vehicle and 5 mg/kg of β-lapachone were administered via tail veins to C57BL/6 mice for 2 hours and 4 hours, respectively. Liver and gonadal adipose tissues were removed and activity of AMPK kinase was assayed. A degree of activation was expressed as a CPM value of radioisotopes. Using the same manner, HepG2 cells, a cell line derived from human liver, were treated with 10 μM β-lapachone for 30 min, and then an assay for AMPK kinase activity was carried out.

[8] = test system: Sprague-Dawley rats; test: Acute toxicity test, peritoneal administration; format: in vivo; conditions: peritoneal, 50, 100 and 200 mg/kg, observed for 2 weeks
[9] = liver and gonadal adipose tissues

Structure (SMILES): CC1(C)CCC2=C(O1)c1ccccc1C(=O)C2=O [Compound 1, β-Lapachone]
- phosphorylation of eNOS after the maximum [1]: gradually diminished, thereby not observed 2 hours later
- time of maximum increase of phosphorylation of eNOS (Anti-pS1177 eNOS) [1]: 30 min
- phosphorylation of AMP kinase (Anti-pT172-AMPK), onset [2]: could be observed from the initial time (30 min)
- phosphorylation of AMP kinase, duration of effect [2]: lasted up to 6 hours
- Cholesterol [3]: 121
- GOT [3]: 42
- GPT [3]: 39
- Glucose [3]: 120
- Triglyceride [3]: 143
- Final BW [4]: 46.5 g
- change in vivo at 100 mg/kg ([4]; Mus musculus, 624 h, read-out: Increase in BW): -16.8%
- PPAR alpha mRNA level [5, 9]: not changed
- PPAR gamma mRNA level [5, 9]: about two-fold increases
- AMPK alpha 1 mRNA level ([5]; vs control group): increased levels in mRNAs
- AMPK alpha 2 mRNA level ([5]; vs control group): increased levels in mRNAs
- acyl CoA oxidase (AOX) mRNA level ([5]; vs control group): increased levels in mRNAs
- carnitine palmitoyltransferase 1 mRNA level ([5]; vs control group): increased levels in mRNAs
- phosphorylation of AMPK and ACC in the gonadal and liver tissues [6]: has an effect on phosphorylation of AMPK and ACC
- AMPK activity in the liver and gonadal adipose tissues [7]: increased AMPK activity
- mortality [8]: none of the animals died

Source: patent US9066922B2, “Pharmaceutical composition for the treatment or prevention of diseases involving obesity, diabetes, metabolic syndrome, neuro-degenerative diseases and mitochondria dysfunction diseases” (MD BIOALPHA CO., LTD., priority 2005, dated 2015)
